Experiments:
velocity of blood flow = test: Speed of flow by echo-Doppler in cardiovascular patients (fluidifying + hemodynamizing action); format: in vivo; conditions: 30 mg/day intramuscular
Text: (§1) The technology used to show the hemodynamic changes was of the non-invasivetype, as in this way experiments can be repeated and are completely innoxious for the patient. Of all the non-invasive methods of diagnosis we selected the most reliable of actual conditions, which is the method of ultrasounds (echo and Doppler's effects). The bidimensional echocardiography in real time, combined with pulsatile Doppler and the bidimensional vascular echography combined with pulsatile Doppler hemodynamic, are actually the two most reliable non-invasive techniques for the study of the anatomic changes and macroscopic hemodynamics with regard to the cardiovascular apparatus. That's why we used for the study of the clinical effects of the 2,4,6-triiodophenol an echo-Doppler trade mark ATL (Mark V), being the transmission frequency of 3 MHz, as well as a continuous Doppler trade mark SONICAID of 4 and 8 MHz.
(§2) Patients were divided in four statistically acceptable groups (50 in each group), comparing the results obtained with this medicament before, during and after the treatment.
(§3) Methodologically there are practiced echographical cuts in real time of the heart, big vases, supra-aortic trunks, abdominal aorta, portal and caval systems and iliac and femoral arteries, obtaining fluxmetric samples Doppler in all the mentioned cardiac cavities and blood vessels to study the sense of the flow, outflow (stream) or volume of flow and the hemodynamic features of the sanguineous flow.
(§4) Hereunder we expose the clinical results obtained after the administration during three months of the 2,4,6-triiodophenol in 200 cardiovascular patients.
(§5) Sick persons were divided in 4 groups; (1) 50 patients with cerebral vascular insufficiency, (2) 50 patients with coronary insufficiency, (3) 50 patients with hepatic insufficiency and (4) 50 patients with peripheral vascular insufficiency of the lower extremities. All these persons received an intramuscular administration, a dosage of 30 mg/day of 2,4,6-triiodophenol, carrying out controls at the first, second and third month of all angiohemodynamic parameters, supposing a total of 600 controls (150 per each group after the three months).

pressure = test: Systemic arterial and portal pressure in cardiovascular patients (hypotensor action); format: in vivo; conditions: 30 mg/day intramuscular
Text: as §1, §2, §3, §4, §5

cardiac contractility = test: Cardiac contractility in cardiovascular patients (inotropic effect); format: in vivo; conditions: 30 mg/day intramuscular
Text: as §1, §2, §3, §4, §5

[1] = Tolerability after three months administration in 200 cardiovascular patients; format: in vivo
Method: as §4, §5

Carrageenin leg oedema = Carrageenin leg oedema test; format: in vivo, white rats; conditions: for inhibition at 5 mg/kg: Rattus norvegicus, 5 mg/kg oral
Method: (A) The antiinflammatory action is shown in white rats, of a weight of about 200-225 g, having provoked in these animals the leg oedema by means of an injection in the sole of the foot of 0.1 ml of a 1% Carrageenin solution.
One control group of ten animals, another the same medicated with indomethacin via oral at 30 mg/kg, in suspension in a carboxymethylcellulose solution, another group of ten rats, medicated with triiodophenol in oral solution at 5 mg/kg, another group medicated with triioodophenol at 1 mg/kg, injected via intramuscular and another group medicated with triiodophenol at 0.5 mg/kg via intramuscular. All medications are administered simultaneously to the formation of Edema.
The volume of the same is measured at 0 hours, 3 hours, 4 hours, 5 hours and 6 hours with a mercury Plestimograph.

[2] = tested on: granuloma formed around cotton implant; test: Cotton implant granuloma test; format: in vivo, rats; conditions: 72 hours
Method: (B) To a group of 10 rats of about 200-225 g is implanted at the dorsal zone, subcutaneously, balled cotton (about 9 mg) impregnated and afterwards dried with a solution of medicamentous substance and which amount is known.
We use as reference Dexamethasone and controls without medicament.
After 72 hours, once the animal is sacrificed, the granuloma formed around the implant is extracted and weighed, after drying at 100° C.
The antiinflammatory reduces the weight of the granuloma.

[3] = tested on: sensation of pain on hot plate; test: Hot plate test at 56° C; format: in vivo, mice
Method: (A) To control analgesic activity we use mice of about 25 g by weight, in groups of ten mice, subjected to the test of the hot plate at 56° C.
Animals receive a medicamentous injection of 0.1 ml of solubilized aspirin with sodium bicarbonate, or of solubilized triiodophenol at pH 9'5.
Controls receive physiologic serum.
The time in which the animals indicate sensation of pain is measured with a chronometer.
In the hereunder table the results testing animals, 15 min. and 30 min. after the medication. Average values are taken of each group.

Solubility = format: physicochemical

Structure (SMILES): Oc1c(I)cc(I)cc1I [2,4,6-triiodophenol]
- Speed of flow, abdominal aorta, variation (Δ %) (velocity of blood flow; 1st month): +3%
- Speed of flow, caval iliac artery, variation (Δ %) (velocity of blood flow; 1st month): +7%
- Speed of flow, portal carotid aorta, variation (Δ %) (velocity of blood flow; 1st month): +11%
- Speed of flow, portal system, variation (Δ %) (velocity of blood flow; 1st month): +16%
- Speed of flow, postcaval system, variation (Δ %) (velocity of blood flow; 1st month): +8%
- Speed of flow, thoracic aorta, variation (Δ %) (velocity of blood flow; 1st month): +2%
- Speed of flow, abdominal aorta, variation (Δ %) (velocity of blood flow; 2nd month): +5%
- Speed of flow, caval iliac artery, variation (Δ %) (velocity of blood flow; 2nd month): +11%
- Speed of flow, portal carotid aorta, variation (Δ %) (velocity of blood flow; 2nd month): +14%
- Speed of flow, portal system, variation (Δ %) (velocity of blood flow; 2nd month): +21%
- Speed of flow, postcaval system, variation (Δ %) (velocity of blood flow; 2nd month): +12%
- Speed of flow, thoracic aorta, variation (Δ %) (velocity of blood flow; 2nd month): +3%
- Speed of flow, abdominal aorta, variation (Δ %) (velocity of blood flow; 3rd month): +7%
- Speed of flow, average value (arteries), variation (Δ %) (velocity of blood flow; 3rd month): +11%
- Speed of flow, average value (veins), variation (Δ %) (velocity of blood flow; 3rd month): +17%
- Speed of flow, caval iliac artery, variation (Δ %) (velocity of blood flow; 3rd month): +14%
- Speed of flow, portal carotid aorta, variation (Δ %) (velocity of blood flow; 3rd month): +19%
- Speed of flow, portal system, variation (Δ %) (velocity of blood flow; 3rd month): +29%
- Speed of flow, postcaval system, variation (Δ %) (velocity of blood flow; 3rd month): +15%
- Speed of flow, thoracic aorta, variation (Δ %) (velocity of blood flow; 3rd month): +5%
- Increase of speed of the sanguineous flow in the arteries (velocity of blood flow; conclusions, three months): 11%
- Increase of speed of the sanguineous flow in the veins (velocity of blood flow; conclusions, three months): 17%
- Portal pressure, variation (Δ %) (pressure; 1st month): -8%
- Systemic arterial pressure, variation (Δ %) (pressure; 1st month): -3%
- Portal pressure, variation (Δ %) (pressure; 2nd month): -11%
- Systemic arterial pressure, variation (Δ %) (pressure; 2nd month): -5%
- Portal pressure, variation (Δ %) (pressure; 3rd month): -13%
- Systemic arterial pressure, variation (Δ %) (pressure; 3rd month): -6%
- Ejection fraction, variation (Δ %) (cardiac contractility; 1st month): -9,1%
- Ejection volume, variation (Δ %) (cardiac contractility; 1st month): -9%
- Telediastolic volume, variation (Δ %) (cardiac contractility; 1st month): -3%
- Telesystolic volume, variation (Δ %) (cardiac contractility; 1st month): +8%
- Ejection fraction, variation (Δ %) (cardiac contractility; 2nd month): -8,8%
- Ejection volume, variation (Δ %) (cardiac contractility; 2nd month): -8,4%
- Telediastolic volume, variation (Δ %) (cardiac contractility; 2nd month): -5%
- Telesystolic volume, variation (Δ %) (cardiac contractility; 2nd month): +11%
- Ejection fraction, variation (Δ %) (cardiac contractility; 3rd month): -8,6%
- Ejection volume, variation (Δ %) (cardiac contractility; 3rd month): -8%
- Telediastolic volume, variation (Δ %) (cardiac contractility; 3rd month): -6%
- Telesystolic volume, variation (Δ %) (cardiac contractility; 3rd month): +13%
- Thyroid function ([1]; iodine concentration of the product): does not alter the thyroid function
- Toxic effect or secondary effects of clinical importance ([1]; three months administration, 30 mg/day intramuscular): does not produce any toxic effect or secondary effects of clinical importance in none of the patients
- % inhibition (oedema) (Carrageenin leg oedema; 0,5 mg/kg inj. (intramuscular), 3 hours): 20%
- % inhibition (oedema) (Carrageenin leg oedema; 0,5 mg/kg inj. (intramuscular), 4 hours): 42%
- % inhibition (oedema) (Carrageenin leg oedema; 0,5 mg/kg inj. (intramuscular), 5 hours): 49%
- % inhibition (oedema) (Carrageenin leg oedema; 0,5 mg/kg inj. (intramuscular), 6 hours): 60%
- % inhibition (oedema) (Carrageenin leg oedema; 1 mg/kg inj. (intramuscular), 4 hours): 66%
- % inhibition (oedema) (Carrageenin leg oedema; 1 mg/kg inj. (intramuscular), 5 hours): 75%
- % inhibition (oedema) (Carrageenin leg oedema; 1 mg/kg inj. (intramuscular), 6 hours): 82%
- inhibition at 5 mg/kg (Carrageenin leg oedema; 3 hours): 43%
- inhibition at 5 mg/kg (Carrageenin leg oedema; 4 hours): 50%
- inhibition at 5 mg/kg (Carrageenin leg oedema; 5 hours): 57%
- inhibition at 5 mg/kg (Carrageenin leg oedema; 6 hours): 65%
- % Reduction of the granuloma (Average) ([2]; 100 micrograms per implant): 19%
- % Reduction of the granuloma (Average) ([2]; 200 micrograms per implant): 28%
- % Reduction of the granuloma (Average) ([2]; 400 micrograms per implant): 44%
- Time to sensation of pain ([3]; 1 mg/kg injection, 15 minutes): 6,5 sec.
- Time to sensation of pain ([3]; 1 mg/kg injection, 30 minutes): 6,7 sec.
- Time to sensation of pain ([3]; 10 mg/kg injection, 15 minutes): 11,7 sec.
- Time to sensation of pain ([3]; 10 mg/kg injection, 30 minutes): 11,8 sec.
- Solubility in alkali solutions (Solubility; alkali solutions): soluble
- Solubility in chloroform and dichloromethane (Solubility; chloroform and dichloromethane): very soluble
- Solubility in organic dissolvents (Solubility; ethylic and propylic alcohols, acetone and sulfuric ether): somewhat soluble
- Solubility in water (Solubility; water): not very soluble

Reference: patent US4727090A, “Process for preparing and therapeutical applications of the 2,4,6-triiodophenol” (Bislak, S.A., priority 1983, dated 1988)
